# From ChEMBL document CHEMBL1201862, “PubChem BioAssay data set” (2004)
# The source made the active and inactive calls.
# Columns and labels:
# [1] = intracellular Trypanosoma cruzi inhibitors in host cells – cell-based, plate reader, cherry-pick samples, set 3, dose response (AID 651818); assay type: functional;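 note: compounds incubated with infected cells for about four days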
# [2] = Dd2 parasite growth inhibition in erythrocytes – SYBR Green, dry powder samples, set 9, dose response (AID 1159568); assay type: functional, cell-based
# [3] = biological target: Beta-galactosidase (Escherichia coli, UniProt Q8VNN2); assay: Dose response counterscreen for EBI2 assay utilizing the enzyme, b-galactosidase.; assay type: functional
# [4] = biological target: T1, Oxysterols receptor LXR-beta (Homo sapiens, UniProt P55055); assay type: functional, cell-based;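 note: agonist activity at LXR measured by a cell-based luminescence readout across a dose range, run as a counterscreen for daf-12 agonists; HEK293 cells with Gal4-LXR fusion and GAL4-driven luciferase reporter; potency for activation of Gal4-LXR reporter so compounds are agonists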
# T1 sequence (P55055 whole entry): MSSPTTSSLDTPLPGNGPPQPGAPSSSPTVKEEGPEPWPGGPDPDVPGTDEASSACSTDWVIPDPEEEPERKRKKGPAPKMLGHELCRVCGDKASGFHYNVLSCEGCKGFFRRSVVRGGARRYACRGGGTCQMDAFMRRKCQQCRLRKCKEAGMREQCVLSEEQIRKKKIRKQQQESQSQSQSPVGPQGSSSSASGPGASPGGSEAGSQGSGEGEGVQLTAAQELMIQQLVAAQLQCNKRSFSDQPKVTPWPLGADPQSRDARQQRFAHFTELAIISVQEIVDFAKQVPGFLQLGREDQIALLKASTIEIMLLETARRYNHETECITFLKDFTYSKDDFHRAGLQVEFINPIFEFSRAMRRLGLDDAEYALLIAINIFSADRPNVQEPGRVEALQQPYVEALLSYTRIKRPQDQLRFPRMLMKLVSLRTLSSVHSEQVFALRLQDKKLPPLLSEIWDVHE
# [5] = biological target: T2, Fructose-bisphosphate aldolase (Mycobacterium tuberculosis, UniProt P9WQA3); assay: Fluorescence-based biochemical high throughput dose response assay for inhibitors of the fructose-bisphosphate aldolase (FBA) of M. tuberculosis.; assay type: functional
# T2 sequence (P9WQA3 whole entry): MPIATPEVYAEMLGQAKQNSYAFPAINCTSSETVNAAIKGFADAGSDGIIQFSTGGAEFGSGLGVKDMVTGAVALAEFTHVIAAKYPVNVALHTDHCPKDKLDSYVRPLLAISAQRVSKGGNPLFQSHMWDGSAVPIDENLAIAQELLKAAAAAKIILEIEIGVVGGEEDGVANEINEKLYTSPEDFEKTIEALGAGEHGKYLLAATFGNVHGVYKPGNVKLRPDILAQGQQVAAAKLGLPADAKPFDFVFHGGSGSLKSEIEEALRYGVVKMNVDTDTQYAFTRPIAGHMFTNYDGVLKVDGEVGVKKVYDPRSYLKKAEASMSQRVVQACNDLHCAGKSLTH
# [6] = cells; assay type: functional, cell-based
# [7] = biological target: T3, Trace amine-associated receptor 1 (Homo sapiens, UniProt Q96RJ0); assay: Fluorescence-based cell-based high throughput dose response assay to identify agonists of the human trace amine associated receptor 1 (TAAR1).; assay type: functional
# T3 sequence (Q96RJ0 whole entry): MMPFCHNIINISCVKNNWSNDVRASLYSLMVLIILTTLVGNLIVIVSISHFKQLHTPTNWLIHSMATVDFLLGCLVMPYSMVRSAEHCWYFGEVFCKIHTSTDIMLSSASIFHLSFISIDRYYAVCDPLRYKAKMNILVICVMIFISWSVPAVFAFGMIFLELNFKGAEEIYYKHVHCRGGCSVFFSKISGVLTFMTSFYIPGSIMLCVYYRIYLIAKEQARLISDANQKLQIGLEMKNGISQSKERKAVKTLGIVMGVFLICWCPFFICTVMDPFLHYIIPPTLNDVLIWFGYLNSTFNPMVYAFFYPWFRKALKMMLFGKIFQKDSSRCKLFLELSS
# [8] = cells; assay type: functional, cell-based; remark: listed apart in the source
# [9] = biological target: T3, Trace amine-associated receptor 1; assay: Counterscreen for agonists of the human trace amine associated receptor 1 (hTAAR1): Fluorescence-based cell-based high throughput dose response assay to identify hTAAR1 agonist that also desensitize TAAR1 receptor response.; assay type: functional
# [10] = biological target: Mu-type opioid receptor (Homo sapiens, UniProt P35372); assay type: functional, cell-based;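 note: U2OS cells with beta-arrestin recruitment to OPRM1 by beta-gal complementation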
# [11] = biological target: 5-hydroxytryptamine receptor 2A (Mus musculus, UniProt P35363); assay type: functional, cell-based;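 note: CHO-K1 cells with tagged receptor and beta-arrestin; agonist potency measured as compound-induced activation of the receptor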
# [12] = blockers of HIV-1 ZM109 envelope-driven cell-cell fusion – HeLa effector, CEM target cells, luciferase, cherry-pick, dose response (AID 652058); assay type: functional, cell-based;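 note: luciferase signal from HIV-1 Env mediated cell-cell fusion of effector and target cells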
# [13] = THP-1 cell cytotoxicity, dose response, cytotoxicity control for non-replicating M. tuberculosis project (AID 489025); assay type: functional
# [14] = HIV-1 AD8 envelope cell-cell fusion blockers – cherry-pick, dose response (AID 652062); assay type: functional, cell-based;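 note: luciferase signal from cell-cell fusion driven by HIV-1 clade B AD8 Env; potency is for inhibitors of fusion seen as a drop in luminescence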
# [15] = blockers of HIV-1 envelope-mediated cell-cell fusion – cherry-pick, dose response (AID 652057); assay type: functional, cell-based
# [16] = viability loss in CEM21 cells – cell-based, CellTiter-Glo luminescence, cherry-picked, cytotoxicity control for viral fusion inhibitor project, dose response (AID 652042); assay type: functional;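 note: potency for signal decrease meaning cytotoxicity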
# [17] = off-target signal loss in HeLa-CEM21 co-culture – HeLa F-luc CTL cells, cherry-picked, counter-screen for HIV-1 Env fusion inhibitor project, dose response (AID 652040); assay type: functional, cell-based;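 note: potency for signal decrease marking cytotoxic or nonspecific inhibition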
# [18] = Trypanosoma cruzi growth suppression in host cells – NIH3T3 host cells, beta-gal luminescence, confirmation (AID 2044); assay type: functional, cell-based;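 note: intracellular parasites grown in NIH/3T3 mouse fibroblasts as host cells; luminescent beta-galactosidase reporter signal from transgenic T. cruzi replicating inside host cells; inhibitors lower the luminescence signal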
# [19] = non-specific 3'UTR reporter inhibition in Clone20-Shn3RL – cell-based, Renilla luciferase, cherry-picked, counter-screen for Shn3 inhibitor project, dose response (AID 624133); assay type: functional
# [20] = biological target: T4, Short transient receptor potential channel 4 (Mus musculus, UniProt Q9QUQ5); assay: calcium entry via TRPC4 opening agents – cell-based, HEK293 TRPC4/mu-opioid, Fluo-4 calcium, dose response (AID 434937); assay type: functional
# T4 sequence (Q9QUQ5 whole entry): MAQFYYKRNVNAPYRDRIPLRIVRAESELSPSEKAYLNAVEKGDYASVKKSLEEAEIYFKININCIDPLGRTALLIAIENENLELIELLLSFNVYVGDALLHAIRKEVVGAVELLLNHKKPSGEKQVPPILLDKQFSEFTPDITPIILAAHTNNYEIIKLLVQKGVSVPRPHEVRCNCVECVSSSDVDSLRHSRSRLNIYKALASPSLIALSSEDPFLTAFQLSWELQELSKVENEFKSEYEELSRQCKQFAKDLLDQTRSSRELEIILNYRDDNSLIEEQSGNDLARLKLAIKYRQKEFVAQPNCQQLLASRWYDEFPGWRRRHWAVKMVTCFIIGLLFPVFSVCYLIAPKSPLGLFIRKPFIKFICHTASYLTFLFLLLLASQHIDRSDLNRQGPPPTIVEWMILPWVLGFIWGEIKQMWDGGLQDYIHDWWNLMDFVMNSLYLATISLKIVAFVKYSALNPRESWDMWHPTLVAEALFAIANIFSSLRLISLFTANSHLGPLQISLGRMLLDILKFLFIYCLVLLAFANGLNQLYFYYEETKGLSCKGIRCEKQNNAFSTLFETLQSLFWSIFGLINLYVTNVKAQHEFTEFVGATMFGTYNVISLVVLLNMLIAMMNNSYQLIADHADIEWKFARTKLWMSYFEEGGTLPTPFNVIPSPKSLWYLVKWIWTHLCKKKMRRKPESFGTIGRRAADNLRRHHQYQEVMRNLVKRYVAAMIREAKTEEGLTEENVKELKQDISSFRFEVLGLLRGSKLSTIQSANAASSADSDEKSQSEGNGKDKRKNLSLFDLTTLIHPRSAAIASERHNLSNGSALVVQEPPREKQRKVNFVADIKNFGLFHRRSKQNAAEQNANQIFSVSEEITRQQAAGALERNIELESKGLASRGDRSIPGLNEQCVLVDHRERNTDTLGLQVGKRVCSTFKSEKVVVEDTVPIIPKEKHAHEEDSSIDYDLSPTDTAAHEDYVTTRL
# [21] = biological target: T5, Rac GTPase-activating protein 1 (Homo sapiens, UniProt Q9H0H5); assay: blockers of MgcRacGAP-driven Rac1 GTP hydrolysis – biochemical, ADP Hunter fluorescence, primary and confirmatory, confirmation (AID 624330); assay type: functional
# T5 sequence (Q9H0H5 whole entry): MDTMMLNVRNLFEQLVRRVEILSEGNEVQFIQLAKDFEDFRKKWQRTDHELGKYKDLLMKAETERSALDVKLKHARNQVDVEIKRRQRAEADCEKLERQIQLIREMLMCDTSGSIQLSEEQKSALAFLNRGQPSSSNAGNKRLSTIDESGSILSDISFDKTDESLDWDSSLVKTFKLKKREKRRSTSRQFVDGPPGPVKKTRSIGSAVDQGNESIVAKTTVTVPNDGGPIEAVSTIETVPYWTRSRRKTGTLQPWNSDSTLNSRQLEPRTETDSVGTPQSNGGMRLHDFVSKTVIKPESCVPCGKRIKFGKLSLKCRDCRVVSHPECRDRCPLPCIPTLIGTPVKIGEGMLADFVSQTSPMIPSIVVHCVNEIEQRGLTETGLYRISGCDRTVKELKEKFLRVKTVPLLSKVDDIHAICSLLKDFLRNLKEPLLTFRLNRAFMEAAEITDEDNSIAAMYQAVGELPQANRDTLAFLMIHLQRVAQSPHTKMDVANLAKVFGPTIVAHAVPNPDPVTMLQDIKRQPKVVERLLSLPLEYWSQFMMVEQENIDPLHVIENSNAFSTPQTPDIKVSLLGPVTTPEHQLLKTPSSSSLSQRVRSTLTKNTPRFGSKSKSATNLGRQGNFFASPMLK
# [22] = loss of viability in HepG2 cells – cell-based, CellTiter-Glo, cherry-picked, cytotoxicity control for Shn3 inhibitor project, dose response (AID 624134); assay type: functional
# [23] = reduction of Shn3 3'UTR-driven luciferase in osteoblasts – cell-based, Clone20 osteoblasts, firefly luciferase, cherry-picked, dose response (AID 624132); assay type: functional;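 note: firefly luciferase luminescence from reporter carrying the Shn3 3'UTR in osteoblasts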
# [24] = NIH3T3 cell viability loss – ATP luminescence, mouse fibroblasts, counter-screen, dose response (AID 2010); assay type: functional, cell-based;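 note: cells exposed to compound for about 90 hours before reading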
# [25] = Luminescence Cell-Based Dose Retest to Confirm Inhibitors of Cancer Stem Cells. [Related pubchem assays (depositor defined):AID2717, AID2721]; assay type: functional; conditions: Homo sapiens
# [26] = viability loss in HeLa cells – cytotoxicity control for MgcRacGAP inhibitor project, dose response (AID 624300); assay type: functional
# [27] = biological target: Induced myeloid leukemia cell differentiation protein Mcl-1 (Homo sapiens, UniProt Q07820); assay type: functional
# Sequence of Induced myeloid leukemia cell differentiation protein Mcl-1 (Q07820 whole entry): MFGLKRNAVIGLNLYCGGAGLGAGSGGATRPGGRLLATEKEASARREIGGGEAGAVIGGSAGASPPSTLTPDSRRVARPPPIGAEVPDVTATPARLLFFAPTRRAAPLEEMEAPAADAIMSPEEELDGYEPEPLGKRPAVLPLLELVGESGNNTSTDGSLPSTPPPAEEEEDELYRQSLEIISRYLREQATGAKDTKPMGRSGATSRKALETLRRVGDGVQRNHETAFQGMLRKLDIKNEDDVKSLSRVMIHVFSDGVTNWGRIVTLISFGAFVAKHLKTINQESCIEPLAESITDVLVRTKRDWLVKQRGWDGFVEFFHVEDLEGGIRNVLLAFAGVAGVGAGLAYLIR
# Sequence of Beta-galactosidase (Q8VNN2 whole entry, the tested form may be a part): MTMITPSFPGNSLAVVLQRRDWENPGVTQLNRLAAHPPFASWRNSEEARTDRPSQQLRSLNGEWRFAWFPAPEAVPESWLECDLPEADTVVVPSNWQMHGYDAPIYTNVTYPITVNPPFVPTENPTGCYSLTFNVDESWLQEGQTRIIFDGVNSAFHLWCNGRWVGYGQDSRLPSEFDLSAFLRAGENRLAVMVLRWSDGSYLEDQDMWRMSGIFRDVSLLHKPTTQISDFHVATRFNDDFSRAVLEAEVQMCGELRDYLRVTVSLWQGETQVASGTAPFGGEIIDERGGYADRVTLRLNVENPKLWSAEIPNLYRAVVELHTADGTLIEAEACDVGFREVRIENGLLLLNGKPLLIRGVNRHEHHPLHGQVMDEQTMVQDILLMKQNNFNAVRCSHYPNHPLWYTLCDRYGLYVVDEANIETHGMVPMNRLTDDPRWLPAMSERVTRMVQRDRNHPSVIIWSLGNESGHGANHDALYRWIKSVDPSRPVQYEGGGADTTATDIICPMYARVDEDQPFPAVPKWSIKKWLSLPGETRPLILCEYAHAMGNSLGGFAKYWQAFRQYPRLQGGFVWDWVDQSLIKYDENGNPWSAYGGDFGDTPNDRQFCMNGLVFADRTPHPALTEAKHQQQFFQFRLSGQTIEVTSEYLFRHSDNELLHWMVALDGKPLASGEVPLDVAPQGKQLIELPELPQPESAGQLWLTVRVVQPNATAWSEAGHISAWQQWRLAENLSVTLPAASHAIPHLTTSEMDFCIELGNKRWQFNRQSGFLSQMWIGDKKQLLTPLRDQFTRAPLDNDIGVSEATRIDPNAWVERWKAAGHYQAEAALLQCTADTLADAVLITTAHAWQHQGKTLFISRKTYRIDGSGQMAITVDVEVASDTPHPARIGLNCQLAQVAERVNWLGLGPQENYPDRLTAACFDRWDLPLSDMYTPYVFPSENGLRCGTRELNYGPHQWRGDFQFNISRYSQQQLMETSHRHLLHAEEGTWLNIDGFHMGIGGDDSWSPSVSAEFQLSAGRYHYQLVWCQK
# Sequence of Mu-type opioid receptor (P35372 whole entry): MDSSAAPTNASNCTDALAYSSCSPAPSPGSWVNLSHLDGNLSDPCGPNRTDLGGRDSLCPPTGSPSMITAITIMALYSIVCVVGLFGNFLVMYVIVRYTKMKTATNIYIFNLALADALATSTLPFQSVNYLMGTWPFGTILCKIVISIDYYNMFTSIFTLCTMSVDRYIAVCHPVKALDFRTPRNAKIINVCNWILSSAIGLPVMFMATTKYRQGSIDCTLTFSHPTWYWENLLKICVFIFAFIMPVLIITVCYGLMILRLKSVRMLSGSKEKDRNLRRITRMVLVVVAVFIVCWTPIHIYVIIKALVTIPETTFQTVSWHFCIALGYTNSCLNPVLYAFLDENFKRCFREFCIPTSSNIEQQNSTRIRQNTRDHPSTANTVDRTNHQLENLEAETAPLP
# Sequence of 5-hydroxytryptamine receptor 2A (P35363 whole entry, the tested form may be a part): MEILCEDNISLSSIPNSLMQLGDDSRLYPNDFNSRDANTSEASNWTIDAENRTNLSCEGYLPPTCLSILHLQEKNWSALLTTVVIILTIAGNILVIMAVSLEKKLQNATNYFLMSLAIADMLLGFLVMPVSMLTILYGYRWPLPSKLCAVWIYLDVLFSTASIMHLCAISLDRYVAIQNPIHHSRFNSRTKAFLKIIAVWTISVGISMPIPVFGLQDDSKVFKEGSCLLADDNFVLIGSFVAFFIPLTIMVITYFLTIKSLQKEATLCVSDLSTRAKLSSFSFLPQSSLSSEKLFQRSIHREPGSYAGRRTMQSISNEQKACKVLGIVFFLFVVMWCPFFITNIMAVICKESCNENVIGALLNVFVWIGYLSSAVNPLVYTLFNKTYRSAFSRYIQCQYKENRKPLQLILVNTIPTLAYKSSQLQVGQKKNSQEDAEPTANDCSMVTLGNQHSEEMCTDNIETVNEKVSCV
structure (smiles),measurement,setting,value
C[C@@H]1CN([C@@H](C)CO)C(=O)c2cccc(NC(=O)c3ccc(-c4nccs4)cc3)c2O[C@H]1CN(C)C(=O)Nc1ccc(C(F)(F)F)cc1,AC50,[1],3.55 µM (active)
same,AC50,[2],6.3 µM (active)
CCOC(=O)C1(CCOc2ccccc2)CCN(C(=O)c2ccc(-n3cccn3)cc2)CC1,IC50,[3],> 80 µM (inactive)
O=C(C[C@H]1C[C@@H]2c3cc(NC(=O)c4ccc5c(c4)OCO5)ccc3O[C@@H]2[C@@H](CO)O1)NCc1ccc(Oc2ccccc2)cc1,AC50,[2],28.6 µM (active)
CN(C)c1ccc2c(c1)[C@@H]1C[C@@H](CC(=O)NC3CCCCC3)O[C@@H](CO)[C@@H]1O2,AC50,[2],20.2 µM (active)
COc1cc2c(cc1NC(=S)NC(=O)/C=C/c1ccco1)oc1ccccc12,IC50,[3],> 80 µM (inactive)
C/C(=N/NC(=O)c1cc(C(C)C)n[nH]1)c1cccs1,EC50,[4],> 67.6 µM (inactive)
CCOC(=O)N1CCN(CC(O)COC2CC(C)CCC2C(C)C)CC1 (stereo not given),IC50,[5],> 9.99 µM (inactive)
Nc1sc2c(c1C(=O)NCCc1ccccc1)CCCC2,EC50,[6],> 29.9 µM (inactive)
same,EC50,[7],1.35 µM (active)
same,IC50,[8],> 29.9 µM (inactive)
same,IC50,[9],4.88 µM (active)
COc1cccc(-n2cc(CNCc3cn(C)nc3-c3ccccc3F)cn2)c1,EC50,[10],92.5 µM (inactive)
same,EC50,[11],0.772 µM (active)
Cc1ccnc(NC(=O)CCNS(=O)(=O)c2ccc(C)c(C)c2)c1,EC50,[4],> 67.6 µM (inactive)
COc1ccc(C2Nc3ccccc3C(=O)N2NS(C)(=O)=O)c(OC)c1 (stereo not given),IC50,[5],> 1.11 µM (active)
Cc1cc(OCCOCCNCc2ccccc2)ccc1C(C)C,AC50,[12],1.86 µM (active)
same,CC50,[13],> 40 µM (active)
same,AC50,[14],4.8 µM (active)
same,AC50,[15],1.55 µM (active)
same,AC50,[16],45.2 µM (active)
same,AC50,[17],2.26 µM (active)
O=C(c1cccc(C(=O)N(c2ccccn2)C2CCCCC2)c1)N(c1ccccn1)C1CCCCC1,EC50,[10],92.5 µM (inactive)
same,EC50,[11],76.1 µM (inactive)
Oc1ccc(CN2CCN(c3ncccn3)CC2)cc1,EC50,[10],92.4 µM (inactive)
same,EC50,[11],0.496 µM (active)
CCCC[C@@H]1CNCCN1CCc1cccc2ccccc12,EC50,[6],> 29.9 µM (inactive)
same,EC50,[7],4.01 µM (active)
same,IC50,[8],> 29.9 µM (inactive)
same,IC50,[9],3.52 µM (active)
CN(C)C=O.O=C(/C=C/c1cccc(F)c1)Nc1ccc(S(=O)(=O)Nc2ncccn2)cc1,IC50,[5],> 9.99 µM (inactive)
O=C(COc1ccc(Br)cc1)N1CCN(Cc2ccc3c(c2)OCO3)CC1,IC50,[3],> 80 µM (inactive)
COc1ccc(CN2CCC(N(CCc3ccccc3)Cc3ccccc3)CC2)c(OC)c1,EC50,[18],1.49 µM (active)
same,AC50,[19],8.85 µM (active)
same,EC50,[20],5.31 µM (active)
same,IC50,[21],96.6 µM (active)
same,AC50,[22],13.6 µM (active)
same,AC50,[23],8.1 µM (active)
same,EC50,[24],> 60 µM (inconclusive)
same,AC50,[25],5.9 µM (active)
same,CC50,[26],56.3 µM (active)
O=[N+]([O-])c1ccc2c(c1)Nc1nc3ccccc3nc1N2,EC50,[4],> 67.5 µM (inactive)
Clc1cccc(N/N=C/c2ccc(N3CCOCC3)s2)c1,IC50,[27],13.4 µM (active)
same,IC50,[21],71.3 µM (active)
same,CC50,[26],83.7 µM (active)
